Assay results published in US12319664B2, “Herbicidally active 3-phenylisoxazoline-5-carboxamides of cyclopentenylcarboxylic acid derivatives” (Bayer Aktiengesellschaft, priority 2018, dated 2025).

Assays:
ALOMY = test: Post-emergence herbicidal action against ALOMY; format: in vivo, Alopecurus myosuroides; conditions: application rate 80 g/ha, rated visually after about 3 weeks
How it was run: (§1)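 Post-emergence spray, one-leaf stage; sandy loam, greenhouse; WP/EC in water + 0.5% additive, 600 l/ha; visual % damage vs untreated at ~3 wk (100% = dead).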

AVEFA = test: Post-emergence herbicidal action against AVEFA; format: in vivo, Avena fatua; conditions: application rate 80 g/ha, rated visually after about 3 weeks
How it was run: as §1

ECHCG = test: Post-emergence herbicidal action against ECHCG; format: in vivo, Echinochloa crus-galli; conditions: application rate 80 g/ha, rated visually after about 3 weeks
How it was run: as §1

LOLRI = test: Post-emergence herbicidal action against LOLRI; format: in vivo, Lolium rigidum; conditions: application rate 80 g/ha, rated visually after about 3 weeks
How it was run: as §1

SETVI = test: Post-emergence herbicidal action against SETVI; format: in vivo, Setaria viridis; conditions: application rate 80 g/ha, rated visually after about 3 weeks
How it was run: as §1

ABUTH = test: Post-emergence herbicidal action against ABUTH; format: in vivo, Abutilon theophrasti; conditions: application rate 80 g/ha, rated visually about 3 weeks after treatment
How it was run: as §1

AMARE = test: Post-emergence herbicidal action against AMARE; format: in vivo, Amaranthus retroflexus; conditions: application rate 80 g/ha, rated visually about 3 weeks after treatment
How it was run: as §1

MATIN = test: Post-emergence herbicidal action against MATIN; format: in vivo, Matricaria inodora; conditions: application rate 80 g/ha, rated visually about 3 weeks after treatment
Description: [table] 2. Post-emergence herbicidal action against harmful plants and crop plant compatibility Seeds of monocotyledonous and dicotyledonous weeds and crop plants are placed in sandy loam in plastic or wood-fibre pots, covered with soil and cultivated in a greenhouse under controlled growth conditions. 2 to 3 weeks after sowing, the test plants are treated at the one-leaf stage. The compounds of the invention, formulated in the form of wettable powders (WP) or as emulsion concentrates (EC), are then sprayed onto the green parts of the plants as aqueous suspension or emulsion with addition of 0.5% additive at a water application rate of 600 l/ha (converted). After the test plants have been kept in the greenhouse under optimum growth conditions for about 3 weeks, the activity of the preparations is rated visually in comparison to untreated controls. For example, 100% activity=the plants have died, 0% activity=like control plants.

PHBPU = test: Post-emergence herbicidal action against PHBPU; format: in vivo, Pharbitis purpurea; conditions: application rate 80 g/ha, rated visually about 3 weeks after treatment
How it was run: as §1

POLCO = test: Post-emergence herbicidal action against POLCO; format: in vivo, Polygonum convolvulus; conditions: application rate 80 g/ha, rated visually about 3 weeks after treatment
How it was run: as §1

STEME = test: Post-emergence herbicidal action against STEME; format: in vivo, Stellaria media; conditions: application rate 80 g/ha, rated visually about 3 weeks after treatment
How it was run: as §1

VIOTR = test: Post-emergence herbicidal action against VIOTR; format: in vivo, Viola tricolor; conditions: application rate 80 g/ha, rated visually about 3 weeks after treatment
How it was run: as §1

VERPE = test: Post-emergence herbicidal action against VERPE; format: in vivo, Veronica persica; conditions: application rate 80 g/ha
How it was run: as §1

HORMU = test: Post-emergence herbicidal action against HORMU; format: in vivo, Hordeum murinum; conditions: application rate 80 g/ha
How it was run: as §1

SMILES | Herbicidal action against [%] ALOMY (ALOMY) [%] | Herbicidal action against [%] AVEFA (AVEFA) [%] | Herbicidal action against [%] ECHCG (ECHCG) [%] | Herbicidal action against [%] LOLRI (LOLRI) [%] | Herbicidal action against [%] SETVI (SETVI) [%] | Herbicidal action against [%] ABUTH (ABUTH) [%] | Herbicidal action against [%] AMARE (AMARE) [%] | Herbicidal action against [%] MATIN (MATIN) [%] | Herbicidal action against [%] PHBPU (PHBPU) [%] | Herbicidal action against [%] POLCO (POLCO) [%] | Herbicidal action against [%] STEME (STEME) [%] | Herbicidal action against [%] VIOTR (VIOTR) [%] | Herbicidal action against [%] VERPE (VERPE) [%] | Herbicidal action against [%] HORMU (HORMU) [%]
C=CC1(C(=O)NC2C=CC(C(=O)O)C2)CC(c2cc(F)cc(F)c2)=NO1 (mixture of isomers) [Example I-037] | 90 | 90 | 90 | 90 | 90 | 90 | 90 | 80 | 80 | 90 | 90 | 90 | 90 | 90
CCOC(=O)C1C=CC(NC(=O)C2(C(F)(F)F)CC(c3cc(Cl)cc(Cl)c3)=NO2)C1 (mixture of isomers) [Example I-038] | 90 | 100 | 80 | 90 | 90 | 80 | 80 | 90 | 80 | 80 | 90 | 80 | 90 | 80
CCOC(=O)C1C=CC(NC(=O)C2(C(F)(F)F)CC(c3cc(F)cc(F)c3)=NO2)C1 (mixture of isomers) [Example I-058] | 100 | 100 | 100 | 90 | 90 | 90 | 90 | 90 | 80 | 90 | 90 | 90 | 80 | 100
C=CC1(C(=O)N[C@H]2C=C[C@@H](C(=O)OCC(F)(F)F)C2)CC(c2cc(F)cc(F)c2)=NO1 (stereo partly drawn) [Example I-015] | 100 | 100 | 100 | 100 | 90 | 90 | 100 | 80 |  | 100 | 100 | 90 | 90 | 100
C=CC1(C(=O)N[C@H]2C=C[C@@H](C(=O)OCC(F)F)C2)CC(c2cc(F)cc(F)c2)=NO1 (stereo partly drawn) [Example I-016] | 100 | 90 | 100 | 100 | 90 | 90 | 90 | 80 |  | 90 | 100 | 80 | 90 | 90
C=CC1(C(=O)N[C@H]2C=C[C@@H](C(=O)OCCC(F)(F)F)C2)CC(c2cc(F)cc(F)c2)=NO1 (stereo partly drawn) [Example I-017] | 100 | 100 | 100 | 100 | 90 | 100 | 90 | 80 |  | 90 | 100 | 80 | 90 | 100
COC(=O)[C@@H]1C=C[C@H](NC(=O)C2(OC)CC(c3cc(F)cc(F)c3)=NO2)C1 (stereo partly drawn) [Example I-019] | 90 | 100 | 80 | 90 | 90 | 80 | 90 | 90 |  | 100 | 90 | 80 | 90 | 90
CCOC(=O)[C@@H]1C=C[C@H](NC(=O)C2(OC)CC(c3cc(F)cc(F)c3)=NO2)C1 (stereo partly drawn) [Example I-020] | 90 | 100 | 80 | 90 | 90 | 80 | 100 | 90 | 80 |  | 80 | 100 | 90 | 80
CCOC(=O)[C@@H]1C=C[C@H](NC(=O)C2(C(F)(F)F)CC(c3cc(C)cc(Cl)c3)=NO2)C1 (stereo partly drawn) [Example I-023] | 90 | 90 | 80 | 90 | 90 | 80 | 90 | 90 | 80 | 100 |  | 80 | 90 | 80
Cc1cc(Cl)cc(C2=NOC(C(=O)N[C@H]3C=C[C@@H](C(=O)OCCCl)C3)(C(F)(F)F)C2)c1 (stereo partly drawn) [Example I-028] | 90 | 100 | 80 | 90 | 90 | 80 | 90 | 80 |  | 100 | 80 | 80 | 80 | 80
CCOCCOC(=O)[C@@H]1C=C[C@H](NC(=O)[C@@]2(C(F)(F)F)CC(c3cc(F)cc(F)c3)=NO2)C1 [Example I-077] | 90 | 100 | 80 | 90 | 80 |  | 80 | 80 | 80 | 80 | 80 | 80 | 90 | 90
C[C@]1(C(=O)N[C@@H]2C=C(C(=O)O)CC2)CC(c2cc(F)cc(F)c2)=NO1 [Example V-01] | 100 |  | 90 | 100 | 80 | 80 | 80 | 80 | 90 | 90 | 90 | 90 | 80 | 90
